{
  "source": "a compilation of properties of binary mixtures (doi:10.1021/ie501956x)",
  "experiment": "xn = mol fraction of the nth substance listed",
  "conditions": "101 kPa",
  "data": [
    {"molecule": "CCO", "note": "+ CC(=O)[O-].CC[n+]1ccn(C)c1", "values": [
      {"measurement": "viscosity", "setting": "278.15 K, x1 = 1", "value": 1.582, "unit": "mPa·s"},
      {"measurement": "viscosity", "setting": "288.15 K, x1 = 1", "value": 1.31, "unit": "mPa·s"},
      {"measurement": "viscosity", "setting": "298.15 K, x1 = 1", "value": 1.081, "unit": "mPa·s"},
      {"measurement": "viscosity", "setting": "308.15 K, x1 = 1", "value": 0.899, "unit": "mPa·s"},
      {"measurement": "viscosity", "setting": "328.15 K, x1 = 1", "value": 0.638, "unit": "mPa·s"}
    ]},
    {"molecule": "CC(=O)[O-].CC[n+]1ccn(C)c1", "note": "+ CCO", "values": [
      {"measurement": "viscosity", "setting": "278.15 K, x2 = 0", "value": 690, "unit": "mPa·s"},
      {"measurement": "viscosity", "setting": "278.15 K, x2 = 0.1", "value": 462, "unit": "mPa·s"},
      {"measurement": "viscosity", "setting": "278.15 K, x2 = 0.2999", "value": 149.8, "unit": "mPa·s"},
      {"measurement": "viscosity", "setting": "278.15 K, x2 = 0.4002", "value": 86.7, "unit": "mPa·s"},
      {"measurement": "viscosity", "setting": "278.15 K, x2 = 0.5001", "value": 44.6, "unit": "mPa·s"},
      {"measurement": "viscosity", "setting": "278.15 K, x2 = 0.6", "value": 23.61, "unit": "mPa·s"},
      {"measurement": "viscosity", "setting": "278.15 K, x2 = 0.7", "value": 12.96, "unit": "mPa·s"},
      {"measurement": "viscosity", "setting": "278.15 K, x2 = 0.8", "value": 6.55, "unit": "mPa·s"},
      {"measurement": "viscosity", "setting": "288.15 K, x2 = 0.201", "value": 130.8, "unit": "mPa·s"},
      {"measurement": "viscosity", "setting": "288.15 K, x2 = 0.2999", "value": 81.5, "unit": "mPa·s"},
      {"measurement": "viscosity", "setting": "288.15 K, x2 = 0.4002", "value": 49.1, "unit": "mPa·s"},
      {"measurement": "viscosity", "setting": "288.15 K, x2 = 0.5001", "value": 28.97, "unit": "mPa·s"},
      {"measurement": "viscosity", "setting": "288.15 K, x2 = 0.6", "value": 16.59, "unit": "mPa·s"},
      {"measurement": "viscosity", "setting": "288.15 K, x2 = 0.7", "value": 9.3, "unit": "mPa·s"},
      {"measurement": "viscosity", "setting": "288.15 K, x2 = 0.9", "value": 2.751, "unit": "mPa·s"},
      {"measurement": "viscosity", "setting": "298.15 K, x2 = 0", "value": 139, "unit": "mPa·s"},
      {"measurement": "viscosity", "setting": "298.15 K, x2 = 0.1", "value": 107.7, "unit": "mPa·s"},
      {"measurement": "viscosity", "setting": "298.15 K, x2 = 0.201", "value": 73.3, "unit": "mPa·s"},
      {"measurement": "viscosity", "setting": "298.15 K, x2 = 0.2999", "value": 49.2, "unit": "mPa·s"},
      {"measurement": "viscosity", "setting": "298.15 K, x2 = 0.6", "value": 12.2, "unit": "mPa·s"},
      {"measurement": "viscosity", "setting": "298.15 K, x2 = 0.7", "value": 7.2, "unit": "mPa·s"},
      {"measurement": "viscosity", "setting": "298.15 K, x2 = 0.8", "value": 4.145, "unit": "mPa·s"},
      {"measurement": "viscosity", "setting": "298.15 K, x2 = 0.9", "value": 2.264, "unit": "mPa·s"},
      {"measurement": "viscosity", "setting": "308.15 K, x2 = 0", "value": 77.3, "unit": "mPa·s"},
      {"measurement": "viscosity", "setting": "308.15 K, x2 = 0.1", "value": 62.8, "unit": "mPa·s"},
      {"measurement": "viscosity", "setting": "308.15 K, x2 = 0.201", "value": 45.4, "unit": "mPa·s"},
      {"measurement": "viscosity", "setting": "308.15 K, x2 = 0.4002", "value": 21.86, "unit": "mPa·s"},
      {"measurement": "viscosity", "setting": "308.15 K, x2 = 0.5001", "value": 14.48, "unit": "mPa·s"},
      {"measurement": "viscosity", "setting": "308.15 K, x2 = 0.7", "value": 5.71, "unit": "mPa·s"},
      {"measurement": "viscosity", "setting": "308.15 K, x2 = 0.9", "value": 1.885, "unit": "mPa·s"},
      {"measurement": "viscosity", "setting": "318.15 K, x2 = 0", "value": 47.4, "unit": "mPa·s"},
      {"measurement": "viscosity", "setting": "318.15 K, x2 = 0.5001", "value": 10.91, "unit": "mPa·s"},
      {"measurement": "viscosity", "setting": "318.15 K, x2 = 0.7", "value": 4.64, "unit": "mPa·s"},
      {"measurement": "viscosity", "setting": "318.15 K, x2 = 0.8", "value": 2.829, "unit": "mPa·s"},
      {"measurement": "viscosity", "setting": "328.15 K, x2 = 0", "value": 31.3, "unit": "mPa·s"},
      {"measurement": "viscosity", "setting": "328.15 K, x2 = 0.1", "value": 26.89, "unit": "mPa·s"},
      {"measurement": "viscosity", "setting": "328.15 K, x2 = 0.201", "value": 21, "unit": "mPa·s"},
      {"measurement": "viscosity", "setting": "328.15 K, x2 = 0.2999", "value": 15.99, "unit": "mPa·s"},
      {"measurement": "viscosity", "setting": "328.15 K, x2 = 0.4002", "value": 11.82, "unit": "mPa·s"},
      {"measurement": "viscosity", "setting": "328.15 K, x2 = 0.5001", "value": 8.49, "unit": "mPa·s"},
      {"measurement": "viscosity", "setting": "328.15 K, x2 = 0.6", "value": 5.84, "unit": "mPa·s"},
      {"measurement": "viscosity", "setting": "328.15 K, x2 = 0.8", "value": 2.391, "unit": "mPa·s"},
      {"measurement": "viscosity", "setting": "328.15 K, x2 = 0.9", "value": 1.355, "unit": "mPa·s"},
      {"measurement": "viscosity", "setting": "338.15 K, x2 = 0.1", "value": 19.14, "unit": "mPa·s"},
      {"measurement": "viscosity", "setting": "338.15 K, x2 = 0.201", "value": 15.4, "unit": "mPa·s"},
      {"measurement": "viscosity", "setting": "338.15 K, x2 = 0.2999", "value": 12.05, "unit": "mPa·s"},
      {"measurement": "viscosity", "setting": "338.15 K, x2 = 0.4002", "value": 9.18, "unit": "mPa·s"},
      {"measurement": "viscosity", "setting": "338.15 K, x2 = 0.5001", "value": 6.77, "unit": "mPa·s"},
      {"measurement": "viscosity", "setting": "338.15 K, x2 = 0.6", "value": 4.79, "unit": "mPa·s"},
      {"measurement": "viscosity", "setting": "338.15 K, x2 = 0.7", "value": 3.218, "unit": "mPa·s"},
      {"measurement": "viscosity", "setting": "338.15 K, x2 = 0.9", "value": 1.165, "unit": "mPa·s"}
    ]}
  ]
}
